Read-outs that look alike come from different tables or passages of the source.
Format: in vivo, rat
Method: Distilled water and saline were administered as vehicle to rats in each control group. […] Plasma cytokine levels were measured by ELISA or multiplex immunoassay; common metabolites and lipid mediators were analyzed by GC-MS/MS and LC-MS/MS, respectively.
Pathway maps of lipid mediators were created by using CellDesigner 4.4 software (http://www.celldesigner.org). We evaluated the effects of the treatments on specific lipid mediators and categorized them according to COX, CYP and LOX pathways by Fisher’s exact test. The proinflammatory and anti-inflammatory indices were analyzed as described by Tam et al. with modification.[22]

[1] = PM/P (polyI:C+maoto vs polyI:C), 2h
[2] = PM/P (polyI:C+maoto vs polyI:C), 4h
[3] = first value of an incomplete line, time (2h or 4h) not assignable

Row | Structure (SMILES) | log2FC of plasma level (M/C (maoto vs control), 2h) | log2FC of plasma level (M/C (maoto vs control), 4h) | log2FC of plasma level (P/C (polyI:C vs control), 2h) | log2FC of plasma level (P/C (polyI:C vs control), 4h) | log2FC of plasma level [1] | log2FC of plasma level [2] | log2FC of plasma level | log2FC of plasma level [3]
1 | CCCCC/C=C\C[C@H](O)/C=C/C=C\C/C=C\CCCC(=O)O [12-HETE] | 1.25 | -0.38 | -0.61 | 0.37 | 1.33 | -0.36 | – | –
2 | CCCCCC(O)/C=C/C=C/C/C=C/CCCC(=O)O (stereo not shown) [12-HHT] | 0.48 | -0.39 | 0.33 | 1.13 | -0.01 | -1.45 | – | –
3 | CCCCC/C=C\CC(=O)/C=C/C=C\C/C=C\CCCC(=O)O [12-KETE] | 0.74 | -1.34 | -0.45 | 0.53 | 0.54 | -1.45 | – | –
4 | CCCCCC(=O)CCC1C(=O)CC(O)C1C/C=C\CCCC(=O)O (stereo not shown) [13,14-dihydro-15-keto-PGD2] | – | – | – | – | – | – | -0.34 | 0.70
5 | CCCCCC(=O)CC[C@H]1[C@H](O)CC(=O)[C@@H]1C/C=C\CCCC(=O)O [13,14-dihydro-15-keto-PGE2] | 0.22 | 0.13 | 1.01 | 0.22 | -0.04 | 0.42 | – | –
6 | CCCCCC(=O)CC[C@@H]1[C@@H](C/C=C\CCCC(=O)O)[C@@H](O)C[C@H]1O [13,14-dihydro-15-keto-PGF2α] | 0.41 | -0.29 | 0.56 | -0.30 | 0.05 | 0.38 | – | –
7 | CCCCCC(=O)CCC1C(O)CC(=O)C1CCC(=O)O (stereo not shown) [13,14-dihydro-15-keto-tetranor-PGE2] | 0.05 | -0.80 | 2.37 | 2.09 | -0.40 | -2.03 | – | –
8 | CCCCCC(=O)CCC1C(O)CC(O)C1CCC(=O)O (stereo not drawn) [13,14-dihydro-15-keto-tetranor-PGF1α] | – | – | – | – | – | – | 0.16 | 0.18
9 | CCCCCC(=O)CCC1C(O)CC(O)C1CCC(=O)O (stereo not drawn) [13,14-dihydro-15-keto-tetranor-PGF1β] | 0.11 | 0.40 | 0.93 | 0.27 | 0.11 | -0.01 | – | –
10 | CC/C=C\C/C=C\C=C\C(O)C/C=C\C/C=C\C/C=C\CCC(=O)O (stereo not shown) [13-HDoHE] | 0.03 | -0.44 | 0.01 | 0.18 | -0.06 | -0.62 | – | –
11 | CCCCCC(O)/C=C/C=C\CCCCCCCC(=O)O (stereo not shown) [13-HODE] | 0.14 | -0.46 | 0.15 | 0.36 | -0.11 | -0.80 | – | –
12 | CC/C=C\CC(O)/C=C/C=C\CCCCCCCC(=O)O (stereo not shown) [13-HOTrE] | 0.23 | -0.43 | 0.16 | 0.11 | -0.20 | -0.60 | – | –
13 | CCCCC[C@@H](/C=C/C=C\CCCCCCCC(=O)O)OO [13-HpODE] | 2.37 | -2.47 | 0.75 | 0.25 | -0.76 | -1.63 | – | –
14 | CCCCCC(=O)/C=C/C=C\CCCCCCCC(=O)O [13-KODE] | 0.39 | -1.68 | -0.08 | 0.50 | -0.15 | -1.45 | – | –
15 | CCCCCC(O)C(O)C/C=C\C/C=C\C/C=C\CCCC(=O)O (stereo not shown) [14,15-DHET] | 0.79 | 0.01 | 0.07 | 0.40 | 0.22 | -0.41 | – | –
16 | CC/C=C\CC(O)C(O)C/C=C\C/C=C\C/C=C\CCCC(=O)O (stereo not shown) [14,15-DiHETE] | 0.41 | -0.20 | 0.14 | 0.00 | -0.13 | -0.17 | – | –
17 | CCCCCC1OC1C/C=C\C/C=C\C/C=C\CCCC(=O)O (stereo not shown) [14,15-EET] | -0.23 | -0.59 | -0.40 | 0.01 | 0.02 | -0.47 | – | –

Row | Structure (SMILES) | log2FC of plasma level (M/C (maoto vs control), 2h) | log2FC of plasma level (M/C (maoto vs control), 4h) | log2FC of plasma level (P/C (polyI:C vs control), 2h) | log2FC of plasma level (P/C (polyI:C vs control), 4h) | log2FC of plasma level [1] | log2FC of plasma level [2] | log2FC of plasma level | log2FC of plasma level [3]
18 | CC/C=C\C/C=C\CC(O)/C=C/C=C\C/C=C\C/C=C\CCC(=O)O (stereo not shown) [14-HDoHE] | 0.82 | -0.39 | -0.32 | 0.40 | 0.58 | -0.58 | – | –
19 | CCCCCC(O)/C=C/C=C\CCCCCCCCCC(=O)O (stereo not shown) [15-HEDE] | 0.33 | -0.76 | -0.05 | 0.71 | 0.14 | -1.18 | – | –
20 | CC/C=C\CC(O)/C=C/C=C\C/C=C\C/C=C\CCCC(=O)O (stereo not shown) [15-HEPE] | 0.47 | -0.29 | 0.28 | 0.06 | -0.02 | -0.55 | – | –
21 | CCCCC[C@H](O)/C=C/C=C\C/C=C\C/C=C\CCCC(=O)O [15-HETE] | -0.07 | -0.49 | -0.12 | 0.56 | -0.02 | -0.78 | – | –
22 | CCCCCC(O)/C=C/C=C\C/C=C\CCCCCCC(=O)O (stereo not shown) [15-HETrE] | 0.77 | 0.00 | 0.20 | 1.11 | 0.25 | -0.98 | – | –
23 | CCCCCC(=O)/C=C/C=C\CCCCCCCCCC(=O)O [15-KEDE] | 0.13 | -0.62 | -0.26 | 0.83 | 0.21 | -1.15 | – | –
24 | CCCCCC(=O)/C=C/[C@H]1[C@H](O)CC(=O)[C@@H]1C/C=C\CCCC(=O)O [15-keto-PGE2] | -0.28 | -0.61 | -0.15 | 0.64 | -0.07 | -1.08 | – | –
25 | CC/C=C\C=C\C(O)C/C=C\C/C=C\C/C=C\C/C=C\CCC(=O)O (stereo not shown) [16-HDoHE] | 0.10 | -0.60 | -0.12 | 0.38 | 0.16 | -0.76 | – | –
26 | CCCCC(O)/C=C\C/C=C\C/C=C\C/C=C\CCCC(=O)O (stereo not shown) [16-HETE] | 0.13 | -0.23 | 0.13 | 0.70 | -0.02 | -0.94 | – | –
27 | CCC(O)C(O)C/C=C\C/C=C\C/C=C\C/C=C\CCCC(=O)O (stereo not shown) [17,18-DiHETE] | 0.60 | -0.17 | 0.19 | 0.32 | -0.30 | -0.38 | – | –
28 | CC/C=C\CC(O)/C=C/C=C\C/C=C\C/C=C\C/C=C\CCC(=O)O (stereo not shown) [17-HDoHE] | 0.30 | -0.62 | -0.12 | 0.47 | 0.18 | -0.79 | – | –
29 | CCCC(O)C/C=C\C/C=C\C/C=C\C/C=C\CCCC(=O)O (stereo not shown) [17-HETE] | 0.20 | 0.07 | 0.59 | 0.13 | 0.42 | 0.16 | – | –
30 | CCC(O)/C=C/C=C\C/C=C\C/C=C\C/C=C\CCCC(=O)O (stereo not shown) [18-HEPE] | 0.08 | -0.59 | 0.02 | 0.07 | -0.16 | -0.77 | – | –
31 | CCC(O)CC/C=C\C/C=C\C/C=C\C/C=C\CCCC(=O)O (stereo not shown) [18-HETE] | 0.16 | -0.08 | 0.25 | -0.05 | -0.26 | -0.07 | – | –
32 | CC(O)CCC/C=C\C/C=C\C/C=C\C/C=C\CCCC(=O)O (stereo not shown) [19-HETE] | 1.44 | 0.46 | 0.66 | -0.33 | 0.46 | 0.72 | – | –
33 | CCC(O)/C=C/C=C\C/C=C\C/C=C\C/C=C\C/C=C\CCC(=O)O (stereo not shown) [20-HDoHE] | -0.10 | -0.54 | -0.13 | 0.44 | 0.06 | -0.71 | – | –
